Experiments:
Format in all cases: cell-based
MOLM-13 = experiment: Proliferation inhibition (CellTiter-Glo) in MOLM-13 cells; details: Homo sapiens, 96 h, MOLM-13 AML cells, heterozygous FLT3-ITD, IC50 (4 days)
Excerpt: (§1) The Proliferation Inhibitory Effect was Investigated in Human AML Cell Lines MOLM-13 (AddexBio: C0003003) [REF: Pubmed: 9305600] and MV-4-11 (ATCC: CRL-9591) [REF PMID: 3496132], and CML cell line […] (ATCC: CRL-3343) [REF PMID: 163658]. Molm-13 is heterozygous for FLT3-ITD mutation, while MV4-11 is homozygous for FLT3-ITD [PMID: 12529668]. […] Cells were maintained in RPMI-1640 medium (ThermoFisher catalog no. 61870036) supplemented with 10% of Heat Inactivated FBS (ThermoFisher catalog no.A31605) and 1% Pen-Strep (Thermofisher catalog no. 10378016) and cultured at 37° C. in a humidified incubator with 5% CO2. Cell lines were […], and the cells were maintained in a range 70%-80% confluency.
(§2) ATP is present in all metabolically active cells and is considered as a marker for cell viability and proliferation. Metabolic cell activity was determined using the CellTiter-Glo kit (Promega catalog no. G7572), an ATP monitoring system based on the production of luminescence by the reaction of ATP with added UltraGlo® recombinant luciferase (Kawano et al., 2016, PLOS One, 8; 11(7):e0158888), according to the supplier's experimental recommendations. The assay was based on a 96 well plate format.
(§3) Test compounds were dissolved at 10 mM in DMSO (Sigma catalog no. D8418; purity 299.9%) and stored at −20° C. Eight concentrations of test compound were assessed in duplicate in an individual test occasion in parallel in the selected cell lines. Gilteratinib and FF-10101 were used as reference compounds and tested in duplicate at eight concentrations. 100% of proliferation is represented by the untreated cells (0.2% DMSO).
(§4) On the day of the experiment (TO), cells were quantified with the cell viability analyser NucleoCounter (Chemometec NC-200) and diluted with fresh medium to obtain the cell density of about 10,000 cells per 200 μL medium. 200 μL of cell suspension were added into wells in the 96 well plate.
(§5) After 2 hours from seeding cells, compounds were added using a D300e compound dispenser (Life Sciences Tecan D300) at desired concentrations with shaking between each compound dispensed. Cell plates containing 200 μL/well suspension were incubated at 37° C. in a humidified incubator with […].
(§6) […] Contents were mixed for 5 min on an orbital shaker to induce cell lysis, and then incubated at room temperature for an additional 10 min in the dark to stabilize the luminescent signal. Luminescence was read by using a GloMax GM300 plate reader (Promega) using the luminescence for 96 well plate standard protocol.
(§7) Results were analysed by GraphPad (Prism) and IC50 values were calculated by non-linear regression using four parameter-logistic equation.

MV-4-11 = experiment: Proliferation inhibition (CellTiter-Glo) in MV-4-11 cells; details: Homo sapiens, MV4-11, 96 h, MV-4-11 AML cells, homozygous FLT3-ITD, IC50 (4 days)
Excerpt: as §1, §2, §3, §4, §5, §6, §7

K-562 = experiment: Proliferation inhibition (CellTiter-Glo) in K-562 cells; details: Homo sapiens, K562, 96 h, K-562 CML cells, no FLT3 mutations, IC50 (4 days)
Excerpt: as §1, §2, §3, §4, §5, §6, §7

Question: With C=CS(=O)(=O)NCCCNc1cc(Nc2nc(NC3CCOCC3)c(CC)nc2C(N)=O)ccn1 [Compound 27, 6-Ethyl-5-((tetrahydro-2H-pyran-4-yl)amino)-3-((2-((3-(vinylsulfonamido)propyl)amino)pyridin-4-yl)amino)pyrazine-2-carboxamide] as the compound, how does the IC50 (MOLM-13) read?
Answer: 10 to 100 nM

Question: What about the IC50 (MV-4-11) of the same compound?
Answer: 10 to 100 nM

Question: What about the IC50 (K-562) of the same compound?
Answer: > 500 nM

Question: For C=CC(=O)NCCCC(=O)NCCc1cc(Nc2nc(NC3CCOCC3)c(CC)nc2C(N)=O)cc(OC)c1 [Compound 28, 3-((3-(2-(4-Acrylamidobutanamido)ethyl)-5-methoxyphenyl)amino)-6-ethyl-5-((tetrahydro-2H-pyran-4-yl)amino)pyrazine-2-carboxamide], which IC50 (MOLM-13) is on record?
Answer: 100 to 500 nM

Question: What about the IC50 (MV-4-11) of the same compound?
Answer: 100 to 500 nM

Question: What about the IC50 (K-562) of the same compound?
Answer: > 500 nM

Question: How did the IC50 (MOLM-13) turn out when CC#CC(=O)NCCCCOc1cccc(Nc2nc(NC3CCOCC3)c(CC)nc2C(N)=O)c1 [Compound 6, 3-((3-(4-(But-2-ynamido)butoxy)phenyl)amino)-6-ethyl-5-((tetrahydro-2H-pyran-4-yl)amino)pyrazine-2-carboxamide] was run?
Answer: 100 to 500 nM

Question: What about the IC50 (MV-4-11) of the same compound?
Answer: 100 to 500 nM

Question: And the IC50 (K-562)?
Answer: > 500 nM

Question: Which results are given for CCc1nc(C(N)=O)c(Nc2cccc(OCCCNC(=O)[C@H](C)N(C)C(=O)/C=C/CN3CC(F)(F)C3)c2)nc1NC1CCOCC1 [Compound 147, (S,E)-3-((3-(3-(2-(4-(3,3-difluoroazetidin-1-yl)-N-methylbut-2-enamido)propanamido)propoxy)phenyl)amino)-6-ethyl-5-((tetrahydro-2H-pyran-4-yl)amino)pyrazine-2-carboxamide]?
Answer: IC50 (MOLM-13): > 500 nM; IC50 (MV-4-11): 10 to 100 nM; IC50 (K-562): > 500 nM

Question: For CCc1nc(C(N)=O)c(Nc2cc(F)cc(OCCCNC(=O)[C@H](C)N(C)C(=O)/C=C/CN(C)C)c2)nc1N(C)C [Compound 149, (S,E)-5-(dimethylamino)-3-((3-(3-(2-(4-(dimethylamino)-N-methylbut-2-enamido)propanamido)propoxy)-5-fluorophenyl)amino)-6-ethylpyrazine-2-carboxamide], which IC50 (MOLM-13) is on record?
Answer: 1 to 10 nM

Question: And the IC50 (MV-4-11)?
Answer: < 1 nM

Question: What about the IC50 (K-562) of the same compound?
Answer: > 500 nM

Question: Which results are given for CCc1nc(C(N)=O)c(Nc2cc(CCNC(=O)[C@H](C)N(C)C(=O)/C=C/CN(C)C)cc(OC)c2)nc1NC1CCOCC1 [Compound 110, 3-[3-[2-[[(2S)-2-[[(E)-4-(dimethylamino)but-2-enoyl]-methyl-amino]propanoyl]amino]ethyl]-5-methoxy-anilino]-6-ethyl-5-(tetrahydropyran-4-ylamino)pyrazine-2-carboxamide]?
Answer: IC50 (MOLM-13): 1 to 10 nM; IC50 (MV-4-11): < 1 nM; IC50 (K-562): > 500 nM

Question: For C=CC(=O)N(C)[C@@H](C)C(=O)NCCc1cc(Nc2nc(NC3CCOCC3)c(CC)nc2C(N)=O)cc(OC)c1 [Compound 109, 6-ethyl-3-[3-methoxy-5-[2-[[(2S)-2-[methyl(prop-2-enoyl)amino]propanoyl]amino]ethyl]anilino]-5-(tetrahydropyran-4-ylamino)pyrazine-2-carboxamide], which IC50 (MOLM-13) is on record?
Answer: 1 to 10 nM

Question: And the IC50 (MV-4-11)?
Answer: 1 to 10 nM

Question: And the IC50 (K-562)?
Answer: > 500 nM

Question: C#CC(=O)NCCC(=O)NCCc1cc(Nc2nc(NC3CCOCC3)c(CC)nc2C(N)=O)cc(OC)c1 [Compound 31, 6-Ethyl-3-((3-methoxy-5-(2-(3-propiolamidopropanamido)ethyl)phenyl)amino)-5-((tetrahydro-2H-pyran-4-yl)amino)pyrazine-2-carboxamide] was tested. Which IC50 (MOLM-13) did it give?
Answer: 1 to 10 nM

Question: What about the IC50 (MV-4-11) of the same compound?
Answer: < 1 nM

Question: What about the IC50 (K-562) of the same compound?
Answer: > 500 nM

Question: What does the source list for CCc1nc(C(N)=O)c(Nc2cccc(OCCCNC(=O)[C@H](C)N(C)C(=O)/C=C/CN(C)C)c2)nc1NC1CCC(F)(F)CC1 [Compound 123, (S,E)-5-((4,4-difluorocyclohexyl)amino)-3-((3-(3-(2-(4-(dimethylamino)-N-methylbut-2-enamido)propanamido)propoxy)phenyl)amino)-6-ethylpyrazine-2-carboxamide]?
Answer: IC50 (MOLM-13): 1 to 10 nM; IC50 (MV-4-11): < 1 nM; IC50 (K-562): > 500 nM

Question: Which IC50 (MOLM-13) does the source give for CCc1nc(C(N)=O)c(Nc2cccc(OCCCNC(=O)[C@H](C)N(C)C(=O)/C=C/CN(C)C)c2)nc1N(CC)CC [Compound 141, (S,E)-5-(diethylamino)-3-((3-(3-(2-(4-(dimethylamino)-N-methylbut-2-enamido)propanamido)propoxy)phenyl)amino)-6-ethylpyrazine-2-carboxamide] here?
Answer: < 1 nM

Question: And the IC50 (MV-4-11)?
Answer: < 1 nM

Question: And the IC50 (K-562)?
Answer: > 500 nM

Question: Which IC50 (MOLM-13) does the source give for CC#CC(=O)N(C)[C@@H](C)C(=O)NCCc1cc(Nc2nc(NC3CCOCC3)c(CC)nc2C(N)=O)cc(OC)c1 [Compound 111, 3-[3-[2-[[(2S)-2-[but-2-ynoyl(methyl)amino]propanoyl]amino]ethyl]-5-methoxy-anilino]-6-ethyl-5-(tetrahydropyran-4-ylamino)pyrazine-2-carboxamide] here?
Answer: 10 to 100 nM

Question: What about the IC50 (MV-4-11) of the same compound?
Answer: 1 to 10 nM

Question: And the IC50 (K-562)?
Answer: > 500 nM

Question: Which results are given for C=CC(=O)NCCCOc1cccc(Nc2nc(NC3CCOCC3)c(CC)nc2C(N)=O)c1 [Compound 3, 3-((3-(3-Acrylamidopropoxy)phenyl)amino)-6-ethyl-5-((tetrahydro-2H-pyran-4-yl)amino)pyrazine-2-carboxamide]?
Answer: IC50 (MOLM-13): 100 to 500 nM; IC50 (MV-4-11): 100 to 500 nM; IC50 (K-562): > 500 nM

Question: For C[C@@H](C(=O)NCCCOc1cccc(Nc2nc(NC3CCOCC3)cnc2C(N)=O)c1)N(C)C(=O)/C=C/CN(C)C [Compound 130, (S,E)-3-((3-(3-(2-(4-(dimethylamino)-N-methylbut-2-enamido)propanamido)propoxy)phenyl)amino)-5-((tetrahydro-2H-pyran-4-yl)amino)pyrazine-2-carboxamide], which IC50 (MOLM-13) is on record?
Answer: 10 to 100 nM

Question: What about the IC50 (MV-4-11) of the same compound?
Answer: 1 to 10 nM

Question: And the IC50 (K-562)?
Answer: > 500 nM

Question: Which results are given for CCc1nc(C(N)=O)c(Nc2cccc(OCCCNC(=O)[C@H](C)N(C)C(=O)/C=C/CN(C)C)c2)nc1N(C)CC [Compound 146, (S,E)-3-((3-(3-(2-(4-(dimethylamino)-N-methylbut-2-enamido)propanamido)propoxy)phenyl)amino)-6-ethyl-5-(ethyl(methyl)amino)pyrazine-2-carboxamide]?
Answer: IC50 (MOLM-13): 1 to 10 nM; IC50 (MV-4-11): < 1 nM; IC50 (K-562): > 500 nM

Question: For C=CC(=O)NCCN1CCc2ccc(Nc3nc(NC4CCOCC4)c(CC)nc3C(N)=O)cc2C1=O [Compound 106], which IC50 (MOLM-13) is on record?
Answer: 10 to 100 nM

Question: What about the IC50 (MV-4-11) of the same compound?
Answer: 10 to 100 nM

Question: What about the IC50 (K-562) of the same compound?
Answer: > 500 nM

Question: What does the source list for CCc1nc(C(N)=O)c(Nc2cccc(OCCCNC(=O)[C@H](C)N(C)C(=O)/C=C/CN(C)C)c2)nc1N1CCC1 [Compound 148, (S,E)-5-(azetidin-1-yl)-3-((3-(3-(2-(4-(dimethylamino)-N-methylbut-2-enamido)propanamido)propoxy)phenyl)amino)-6-ethylpyrazine-2-carboxamide]?
Answer: IC50 (MOLM-13): 1 to 10 nM; IC50 (MV-4-11): 1 to 10 nM; IC50 (K-562): > 500 nM

Question: Which IC50 (MOLM-13) does the source give for C=CC(=O)NCCCNc1cc(Nc2nc(NC3CCOCC3)c(CC)nc2C(N)=O)ccn1 [Compound 24, 3-((2-((3-Acrylamidopropyl)amino)pyridin-4-yl)amino)-6-ethyl-5-((tetrahydro-2H-pyran-4-yl)amino)pyrazine-2-carboxamide] here?
Answer: 10 to 100 nM

Question: What about the IC50 (MV-4-11) of the same compound?
Answer: 10 to 100 nM

Question: What about the IC50 (K-562) of the same compound?
Answer: > 500 nM

Question: What does the source list for C=CC(=O)NCC#Cc1cccc(Nc2nc(NC3CCOCC3)c(CC)nc2C(N)=O)c1 [Compound 9, 3-((3-(3-Acrylamidoprop-1-yn-1-yl)phenyl)amino)-6-ethyl-5-((tetrahydro-2H-pyran-4-yl)amino)pyrazine-2-carboxamide]?
Answer: IC50 (MOLM-13): 10 to 100 nM; IC50 (MV-4-11): 10 to 100 nM; IC50 (K-562): > 500 nM

Reference: US20250136558A1, “PYRAZINE COMPOUNDS AS IRREVERSIBLE INHIBITORS OF FLT3” (BIOMEA FUSION, INC., priority 2021, published 2025)
